Test results published in US20240210412A1, “SULFONYL-TRIAZOLE COMPOUNDS USEFUL AS LIGANDS AND INHIBITORS OF PROSTAGLANDIN REDUCTASE 2” (University of Virginia Patent Foundation, priority 2021, published 2024).

What was measured:
Experiment in all cases: SILAC LC-MS ABPP
Type in all cases: cell-based
Conditions in all cases: 25 μM 2 h, live DM93 cells
O94925 = biological target: T1, O94925 (Homo sapiens, UniProt O94925)
T1 construct: endogenous in cells; host or cells: DM93 cells (SILAC)
Outline: (§1)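 HHS-475 probe (100 μM, 2 h, 37 °C) was applied after a 2 h pretreatment with either 25 μM SuTEx ligand (heavy DM93 cells) or DMSO (light). Probe-labelled soluble proteins were conjugated to desthiobiotin-azide, combined equally, digested and quantified by LC-MS/MS.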

Q9Y5K6 = biological target: T2, Q9Y5K6 (Homo sapiens, UniProt Q9Y5K6)
T2 construct: endogenous in cells; host or cells: DM93 cells (SILAC)
T2 sequence (Q9Y5K6 whole entry): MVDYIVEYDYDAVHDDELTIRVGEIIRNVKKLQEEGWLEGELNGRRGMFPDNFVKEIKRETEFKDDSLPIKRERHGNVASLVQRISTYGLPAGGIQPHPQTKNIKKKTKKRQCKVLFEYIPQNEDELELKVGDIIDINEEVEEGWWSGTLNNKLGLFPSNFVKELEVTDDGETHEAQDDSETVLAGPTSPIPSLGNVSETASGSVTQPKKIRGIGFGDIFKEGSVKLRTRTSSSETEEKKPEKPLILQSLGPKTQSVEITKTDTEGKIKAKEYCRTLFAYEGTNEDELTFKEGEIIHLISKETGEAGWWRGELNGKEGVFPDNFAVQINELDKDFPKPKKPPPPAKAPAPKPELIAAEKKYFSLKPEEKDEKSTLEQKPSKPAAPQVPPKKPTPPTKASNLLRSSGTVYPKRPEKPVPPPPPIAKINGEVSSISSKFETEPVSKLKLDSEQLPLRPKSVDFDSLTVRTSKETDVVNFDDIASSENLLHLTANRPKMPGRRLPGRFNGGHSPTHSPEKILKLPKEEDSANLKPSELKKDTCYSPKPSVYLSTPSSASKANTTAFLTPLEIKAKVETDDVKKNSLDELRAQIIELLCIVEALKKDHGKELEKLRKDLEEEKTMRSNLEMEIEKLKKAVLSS
Outline: as §1

Q96C86 = biological target: T3, Q96C86 (Homo sapiens, UniProt Q96C86)
T3 construct: endogenous in cells; host or cells: DM93 cells (SILAC), treated live; soluble proteome analysed
T3 sequence (Q96C86 whole entry): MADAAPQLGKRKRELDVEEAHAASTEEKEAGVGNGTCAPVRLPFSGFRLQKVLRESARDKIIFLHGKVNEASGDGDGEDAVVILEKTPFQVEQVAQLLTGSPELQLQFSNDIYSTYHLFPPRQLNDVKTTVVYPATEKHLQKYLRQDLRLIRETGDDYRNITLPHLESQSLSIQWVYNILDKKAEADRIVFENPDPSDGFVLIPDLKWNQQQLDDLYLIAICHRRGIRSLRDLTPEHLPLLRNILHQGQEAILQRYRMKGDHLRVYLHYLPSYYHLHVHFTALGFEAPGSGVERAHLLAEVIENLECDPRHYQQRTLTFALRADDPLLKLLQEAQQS
Outline: as §1

P60900 = biological target: T4, P60900 (Homo sapiens, UniProt P60900)
T4 construct: endogenous in cells; host or cells: DM93 cells (SILAC)
Outline: as §1

P68104 = biological target: T5, P68104 (Homo sapiens, UniProt P68104)
T5 construct: performing SuTEx compound screening directly in cells; endogenous in cells; host or cells: DM93 cells (SILAC)
T5 sequence (P68104 whole entry): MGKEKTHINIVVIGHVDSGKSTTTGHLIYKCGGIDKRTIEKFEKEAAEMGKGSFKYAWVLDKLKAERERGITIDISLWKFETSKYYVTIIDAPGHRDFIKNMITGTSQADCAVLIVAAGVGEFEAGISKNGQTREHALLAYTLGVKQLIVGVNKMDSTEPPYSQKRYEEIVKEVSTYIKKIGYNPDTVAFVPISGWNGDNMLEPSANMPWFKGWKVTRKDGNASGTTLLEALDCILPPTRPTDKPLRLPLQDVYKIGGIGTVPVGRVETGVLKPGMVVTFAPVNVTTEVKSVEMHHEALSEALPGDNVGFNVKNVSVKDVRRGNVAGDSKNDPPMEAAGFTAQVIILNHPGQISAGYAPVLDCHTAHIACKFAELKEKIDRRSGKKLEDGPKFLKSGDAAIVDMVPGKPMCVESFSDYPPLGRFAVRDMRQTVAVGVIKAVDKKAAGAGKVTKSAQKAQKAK
Outline: as §1

O43852 = biological target: T6, O43852 (Homo sapiens, UniProt O43852)
T6 construct: endogenous in cells; host or cells: DM93
T6 sequence (O43852 20-315): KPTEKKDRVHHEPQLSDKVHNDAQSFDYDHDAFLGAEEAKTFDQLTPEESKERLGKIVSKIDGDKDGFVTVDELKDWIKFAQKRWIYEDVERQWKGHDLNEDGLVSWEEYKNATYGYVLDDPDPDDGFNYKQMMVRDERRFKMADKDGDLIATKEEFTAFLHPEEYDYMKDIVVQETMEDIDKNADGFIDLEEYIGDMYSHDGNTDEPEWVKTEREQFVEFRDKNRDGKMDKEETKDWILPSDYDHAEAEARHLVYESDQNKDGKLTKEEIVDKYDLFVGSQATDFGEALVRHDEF
Outline: as §1

Q96A72 = biological target: T7, Q96A72 (Homo sapiens, UniProt Q96A72)
T7 construct: endogenous in cells; host or cells: DM93 cells (SILAC), treated live; soluble proteome analysed
T7 sequence (Q96A72 whole entry): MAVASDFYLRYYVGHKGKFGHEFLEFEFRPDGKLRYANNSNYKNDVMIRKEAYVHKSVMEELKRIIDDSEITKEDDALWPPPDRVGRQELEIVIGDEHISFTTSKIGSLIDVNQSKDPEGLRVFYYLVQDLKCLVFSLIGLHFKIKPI
Outline: as §1

Q9NVE7 = biological target: T8, Q9NVE7 (Homo sapiens, UniProt Q9NVE7)
T8 construct: endogenous in cells; host or cells: DM93 cells (SILAC)
T8 sequence (Q9NVE7 whole entry): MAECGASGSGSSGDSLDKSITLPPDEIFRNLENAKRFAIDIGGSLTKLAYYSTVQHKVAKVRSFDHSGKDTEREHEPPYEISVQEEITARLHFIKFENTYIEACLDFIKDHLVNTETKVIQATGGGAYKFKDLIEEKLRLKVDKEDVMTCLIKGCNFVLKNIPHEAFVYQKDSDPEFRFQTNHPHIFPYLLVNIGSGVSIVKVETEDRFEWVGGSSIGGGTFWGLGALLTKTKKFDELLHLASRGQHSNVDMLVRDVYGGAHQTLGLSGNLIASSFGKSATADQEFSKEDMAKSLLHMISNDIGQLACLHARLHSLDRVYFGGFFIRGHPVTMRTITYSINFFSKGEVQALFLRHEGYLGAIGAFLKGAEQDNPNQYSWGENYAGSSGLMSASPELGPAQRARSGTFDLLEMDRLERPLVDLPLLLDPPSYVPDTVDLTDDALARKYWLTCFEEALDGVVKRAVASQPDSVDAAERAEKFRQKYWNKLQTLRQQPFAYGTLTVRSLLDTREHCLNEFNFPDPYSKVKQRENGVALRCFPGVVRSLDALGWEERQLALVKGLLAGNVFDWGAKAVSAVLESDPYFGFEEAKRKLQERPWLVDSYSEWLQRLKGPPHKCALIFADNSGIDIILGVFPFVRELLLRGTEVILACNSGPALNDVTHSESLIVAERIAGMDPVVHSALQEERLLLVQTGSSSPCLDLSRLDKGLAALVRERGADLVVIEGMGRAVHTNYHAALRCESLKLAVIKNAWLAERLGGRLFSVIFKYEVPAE
Outline: as §1

O75521 = biological target: T9, O75521 (Homo sapiens, UniProt O75521)
T9 construct: endogenous in cells; host or cells: DM93 cells (SILAC)
T9 sequence (O75521 39-394): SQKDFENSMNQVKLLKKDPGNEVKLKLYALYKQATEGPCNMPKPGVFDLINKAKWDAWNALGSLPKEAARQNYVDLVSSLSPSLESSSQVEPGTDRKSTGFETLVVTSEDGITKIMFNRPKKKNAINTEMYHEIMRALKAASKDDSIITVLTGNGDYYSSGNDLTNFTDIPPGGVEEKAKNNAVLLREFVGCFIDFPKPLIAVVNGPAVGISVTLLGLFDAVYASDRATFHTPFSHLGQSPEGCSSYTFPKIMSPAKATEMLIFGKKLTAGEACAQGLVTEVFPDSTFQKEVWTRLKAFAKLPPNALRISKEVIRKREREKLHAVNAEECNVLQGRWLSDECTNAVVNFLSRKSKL
Outline: as §1

P46013 = biological target: T10, P46013 (Homo sapiens, UniProt P46013)
T10 construct: endogenous in cells; host or cells: DM93 cells (SILAC)
Outline: as §1

P55084 = biological target: T11, P55084 (Homo sapiens, UniProt P55084)
T11 construct: endogenous in cells; host or cells: DM93 cells (SILAC)
Outline: as §1

Q9H788 = biological target: T12, Q9H788 (Homo sapiens, UniProt Q9H788)
T12 construct: endogenous in cells; host or cells: DM93 cells (SILAC), treated live; soluble proteome analysed
T12 sequence (Q9H788 whole entry): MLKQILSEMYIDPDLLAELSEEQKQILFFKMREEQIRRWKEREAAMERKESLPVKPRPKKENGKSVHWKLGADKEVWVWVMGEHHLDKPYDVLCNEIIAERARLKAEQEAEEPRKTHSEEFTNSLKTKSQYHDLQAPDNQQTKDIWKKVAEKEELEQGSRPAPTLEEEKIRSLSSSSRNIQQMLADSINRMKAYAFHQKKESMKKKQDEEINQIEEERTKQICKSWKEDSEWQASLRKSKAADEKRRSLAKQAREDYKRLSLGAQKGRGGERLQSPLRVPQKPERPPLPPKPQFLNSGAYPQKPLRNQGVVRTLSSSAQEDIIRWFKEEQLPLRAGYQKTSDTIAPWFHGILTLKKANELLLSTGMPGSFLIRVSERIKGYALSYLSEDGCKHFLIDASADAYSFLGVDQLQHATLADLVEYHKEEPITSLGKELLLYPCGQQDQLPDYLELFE
Outline: as §1

Q92734 = biological target: T13, Q92734 (Homo sapiens, UniProt Q92734)
T13 construct: endogenous in cells; host or cells: DM93 cells (SILAC), live-cell treatment
Outline: as §1

P51665 = biological target: T14, P51665 (Homo sapiens, UniProt P51665)
T14 construct: endogenous in cells; host or cells: DM93 cells (SILAC)
Outline: as §1

Q9UMX5 = biological target: T15, Q9UMX5 (Homo sapiens, UniProt Q9UMX5)
T15 construct: endogenous in cells; host or cells: DM93 cells (SILAC)
T15 sequence (Q9UMX5 32-172): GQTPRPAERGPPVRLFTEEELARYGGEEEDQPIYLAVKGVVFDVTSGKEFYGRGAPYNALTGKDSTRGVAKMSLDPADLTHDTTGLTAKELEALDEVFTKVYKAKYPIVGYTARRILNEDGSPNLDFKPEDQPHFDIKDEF
Outline: as §1

P40939 = biological target: T16, P40939 (Homo sapiens, UniProt P40939)
T16 construct: endogenous in cells; host or cells: DM93 cells (SILAC)
Outline: as §1

P25685 = biological target: T17, P25685 (Homo sapiens, UniProt P25685)
T17 construct: endogenous in cells; host or cells: DM93 (SILAC)
Outline: as §1

Q06203 = biological target: T18, Q06203 (Homo sapiens, UniProt Q06203)
T18 construct: performing SuTEx compound screening directly in cells; endogenous in cells; host or cells: DM93 cells (SILAC)
T18 sequence (Q06203 12-517): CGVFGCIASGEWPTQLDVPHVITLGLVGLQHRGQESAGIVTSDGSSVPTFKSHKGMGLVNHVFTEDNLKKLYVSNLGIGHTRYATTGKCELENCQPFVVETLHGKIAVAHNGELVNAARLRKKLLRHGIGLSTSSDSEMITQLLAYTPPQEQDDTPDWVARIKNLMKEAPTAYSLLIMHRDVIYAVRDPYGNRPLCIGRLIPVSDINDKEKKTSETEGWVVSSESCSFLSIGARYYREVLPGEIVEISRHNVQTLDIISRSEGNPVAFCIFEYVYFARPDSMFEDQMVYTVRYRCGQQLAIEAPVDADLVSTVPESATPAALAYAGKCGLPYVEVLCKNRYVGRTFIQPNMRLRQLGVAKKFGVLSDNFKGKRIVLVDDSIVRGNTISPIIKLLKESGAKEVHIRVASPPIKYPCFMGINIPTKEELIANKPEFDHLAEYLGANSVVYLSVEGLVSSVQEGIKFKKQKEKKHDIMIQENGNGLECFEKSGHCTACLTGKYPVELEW
Outline: as §1

Q9NZQ3 = biological target: T19, Q9NZQ3 (Homo sapiens, UniProt Q9NZQ3)
T19 construct: endogenous in cells; host or cells: DM93 cells (SILAC)
Outline: as §1

T1 sequence (O94925 55-669): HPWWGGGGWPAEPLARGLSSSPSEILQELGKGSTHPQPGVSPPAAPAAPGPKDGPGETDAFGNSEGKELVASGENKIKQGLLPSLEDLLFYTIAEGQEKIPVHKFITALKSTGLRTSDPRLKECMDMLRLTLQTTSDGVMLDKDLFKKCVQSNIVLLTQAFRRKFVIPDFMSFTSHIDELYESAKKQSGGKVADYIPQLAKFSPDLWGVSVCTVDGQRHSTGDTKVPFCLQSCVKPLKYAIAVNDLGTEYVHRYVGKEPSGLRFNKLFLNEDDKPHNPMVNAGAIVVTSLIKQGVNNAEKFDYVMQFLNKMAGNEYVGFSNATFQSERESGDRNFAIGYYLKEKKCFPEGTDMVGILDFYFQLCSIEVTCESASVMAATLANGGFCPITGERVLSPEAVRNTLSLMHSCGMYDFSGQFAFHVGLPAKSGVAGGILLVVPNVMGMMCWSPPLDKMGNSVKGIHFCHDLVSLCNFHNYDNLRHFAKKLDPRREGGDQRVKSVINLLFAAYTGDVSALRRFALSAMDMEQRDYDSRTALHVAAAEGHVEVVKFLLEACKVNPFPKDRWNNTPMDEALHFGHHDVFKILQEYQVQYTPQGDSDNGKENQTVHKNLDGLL

O=C(NC1CC1)c1ccc(S(=O)(=O)n2cncn2)cc1 [HHS-0101, 4-((1H-1,2,4-triazol-1-yl)sulfonyl)-N-cyclopropylbenzamide]
liganded tyrosine site 145 (O94925): HHS0101.Y (tyrosine sites that showed >80% reductions (SR >5) in probe labeling in cells treated with compounds (liganded sites)) | liganded tyrosine site 304 (O94925): HHS0101.Y (tyrosine sites that showed >80% reductions (SR >5) in probe labeling in cells treated with compounds (liganded sites)) | liganded tyrosine site 361 (Q9Y5K6): HHS0101.Y|HHS0201.Y|HHS0401.Y (tyrosine sites that showed >80% reductions (SR >5) in probe labeling in cells treated with compounds (liganded sites)) | liganded tyrosine site 116 (Q96C86): HHS0101.Y|HHS0401.Y (tyrosine sites that showed >80% reductions (SR >5) in probe labeling in cells treated with compounds (liganded sites)) | liganded tyrosine site 103 (P60900): HHS0101.Y|HHS0201.Y|HHS0401.Y (tyrosine sites that showed >80% reductions (SR >5) in probe labeling in cells treated with compounds (liganded sites)) | liganded tyrosine site 183 (P68104): HHS0101.Y (tyrosine sites that showed >80% reductions (SR >5) in probe labeling in cells treated with compounds (liganded sites))

O=C(NCC1CC1)c1ccc(S(=O)(=O)n2cncn2)cc1 [HHS-0201, 4-((1H-1,2,4-triazol-1-yl)sulfonyl)-N-(cyclopropylmethyl)benzamide]
liganded tyrosine site 294 (O43852): HHS0201.Y (tyrosine sites that showed >80% reductions (SR >5) in probe labeling in cells treated with compounds (liganded sites)) | liganded tyrosine site 36 (Q96A72): HHS0201.Y (tyrosine sites that showed >80% reductions (SR >5) in probe labeling in cells treated with compounds (liganded sites)) | liganded tyrosine site 338 (Q9NVE7): HHS0201.Y|HHS0401.Y (tyrosine sites that showed >80% reductions (SR >5) in probe labeling in cells treated with compounds (liganded sites)) | liganded tyrosine site 285 (O75521): HHS0201.Y|HHS0301.Y|HHS0401.Y (tyrosine sites that showed >80% reductions (SR >5) in probe labeling in cells treated with compounds (liganded sites))

O=C(NCc1ccccc1)c1ccc(S(=O)(=O)n2cncn2)cc1 [HHS-0401, 4-((1H-1,2,4-triazol-1-yl)sulfonyl)-N-benzylbenzamide]
liganded tyrosine site 340 (P46013): HHS0401.Y|HHS0701.Y (tyrosine sites that showed >80% reductions (SR >5) in probe labeling in cells treated with compounds (liganded sites)) | liganded tyrosine site 402 (P55084): HHS0401.Y (tyrosine sites that showed >80% reductions (SR >5) in probe labeling in cells treated with compounds (liganded sites))

O=C(c1ccc(S(=O)(=O)n2cncn2)cc1)N1CCC(c2ccccc2)CC1 [HHS-0701, (4-((1H-1,2,4-triazol-1-yl)sulfonyl)phenyl)(4-phenylpiperidin-1-yl)methanone]
liganded tyrosine site 194 (Q9H788): HHS0701.Y (tyrosine sites that showed >80% reductions (SR >5) in probe labeling in cells treated with compounds (liganded sites)) | liganded tyrosine site 392 (Q92734): HHS0701.Y (tyrosine sites that showed >80% reductions (SR >5) in probe labeling in cells treated with compounds (liganded sites)) | liganded tyrosine site 74 (P51665): HHS0701.Y (tyrosine sites that showed >80% reductions (SR >5) in probe labeling in cells treated with compounds (liganded sites)) | liganded tyrosine site 82 (Q9UMX5): HHS0701.Y (tyrosine sites that showed >80% reductions (SR >5) in probe labeling in cells treated with compounds (liganded sites)) | liganded tyrosine site 343 (P40939): HHS0701.Y (tyrosine sites that showed >80% reductions (SR >5) in probe labeling in cells treated with compounds (liganded sites))

O=C(NC1CCCCC1)c1ccc(S(=O)(=O)n2cncn2)cc1 [HHS-0301, 4-((1H-1,2,4-triazol-1-yl)sulfonyl)-N-cyclohexylbenzamide]
liganded tyrosine site 52 (P25685): HHS0301.Y (tyrosine sites that showed >80% reductions (SR >5) in probe labeling in cells treated with compounds (liganded sites)) | liganded tyrosine site 451 (Q06203): HHS0301.Y (tyrosine sites that showed >80% reductions (SR >5) in probe labeling in cells treated with compounds (liganded sites)) | liganded tyrosine site 52 (Q9NZQ3): HHS0301.Y (tyrosine sites that showed >80% reductions (SR >5) in probe labeling in cells treated with compounds (liganded sites))
